Source: patent US20230115252A1, “METHODS FOR TREATING NEUROMUSCULAR JUNCTION-RELATED DISEASES” (NSERM (Institut National de la Sante et de la Recherche …, priority 2014, published 2023)

How the values were obtained:
[1] = test system: Wnt/β-catenin signaling in MuSKΔCRD primary myotubes; test: β-catenin translocation to the nucleus in primary myotubes; assay type: cell-based, mice
Protocol: (§1) Muscle cells were isolated from P7-P10 hind limb Tibialis Anterior (TA) and Gastrocnemius muscles from MuSKΔCRD or WT mice. Briefly, muscle tissues were excised, separated from connective tissue, minced in dissecting medium (DMEM-F12 medium containing 2 mM glutamine, 2% penicillin/streptomycin (500 U), 2% Fungizone) and dissociated in dissecting medium containing 0.2% type I collagenase (Gibco) for 90 min at 37° C. in water bath. Cells were centrifugated, filtered and resuspended in proliferating medium (dissecting medium supplemented with 20% horse serum and 2% Ultroser G, Pall). After overnight pre-plating, cells were expanded in Matrigel (Corning) coated dishes for 3 to 5 days and differentiated in differentiating medium (dissecting medium supplemented with 2% horse serum) for 5 days. When indicated, myotubes were treated with recombinant Agrin (0.4 μg/ml, R&D system), Wnt11 (10 ng/ml, R&D system) or LiCl (2.5 mM, Sigma) for 16 h.

[2] = test system: MuSKΔCRD primary myotubes; test: AChR clustering in MuSKΔCRD primary myotubes; assay type: cell-based, mice; settings: 16 h
Protocol: as §1
All images were collected on a microscope (model BX61; Olympus) equipped with a Fast 1394 Digital CCD FireWire camera (model Retiga 2000R; Qimaging) and a 20× objective or on a confocal laser scanning microscope (Zeiss LSM-710) equipped with a 20× objective and 63× oil objective. Collected Z-stacks confocal images (5 to 20 stacks with 1 to 1.5 μm (20×) z-steps) and image capture were made using LSM Image Browser. The same laser power and parameter setting were applied to ensure fair comparison between WT and MuSKΔCRD muscles. […] For quantification of the AChR clusters number, volume and intensity, image stacks were quantified using the ImageJ (version 1.46m) plugin “3D object counter” (Bolte and Cordeliéres, 2006). […] At least 4 diaphragms or 50 isolated muscle fibers of each genotype were analyzed and quantified. To evaluate β-catenin translocation to subsynaptic nuclei in isolated muscle fibers, image stacks corresponding to nuclei were used for quantification using the ImageJ intensity plot profile measuring the intensity of β-catenin and Dapi fluorescence within the segmented line.

MuSKΔCRD mice [3] = test: NMJ morphology in postnatal MuSKΔCRD mice injected P10 to P60 (isolated TA muscle fibers); assay type: in vivo
Protocol: (§2) Isolated muscle fibers were labeled with antibodies as for whole-mount immunostaining Incubation times were the following: 3 hours for blocking, overnight at 4° C. for incubation with primary or secondary antibodies.
(§3) All images were collected on a microscope (model BX61; Olympus) equipped with a Fast 1394 Digital CCD FireWire camera (model Retiga 2000R; Qimaging) and a 20× objective or on a confocal laser scanning microscope (Zeiss LSM-710) equipped with a 20× objective and 63× oil objective. Collected Z-stacks confocal images (5 to 20 stacks with 1 to 1.5 μm (20×) z-steps) and image capture were made using LSM Image Browser. The same laser power and parameter setting were applied to ensure fair comparison between WT and MuSKΔCRD muscles. Multiple Tile Scanned images were taken to cover the size of the whole diaphragm. Confocal images presented are single-projected image derived from overlaying each set of stacks. For quantification of the AChR clusters number, volume and intensity, image stacks were quantified using the ImageJ (version 1.46m) plugin “3D object counter” (Bolte and Cordeliéres, 2006). The threshold intensity was set by visual inspection of AChR clusters, being the same between WT and MuSKΔCRD images. The endplate band width was defined by the distance between the two farthest AChR clusters from the main nerve trunk. Around 100 measurements regularly spaced and covering the entire diaphragm were taken. At least 4 diaphragms or 50 isolated muscle fibers of each genotype were analyzed and quantified. To evaluate β-catenin translocation to subsynaptic nuclei in isolated muscle fibers, image stacks corresponding to nuclei were used for quantification using the ImageJ intensity plot profile measuring the intensity of β-catenin and Dapi fluorescence within the segmented line.
E12 pregnant mice or P10 adult mice were intraperitoneally injected with LiCl (Sigma, 600 mM-10 μl/g body weight) or placebo NaCl solution (0,0009%-10 μl/g body weight). Daily injections were made from E12 to E18 or from P10 to P60. […]

MuSKΔCRD mice [4] = test: Rail-grip test and grip strength in treated MuSKΔCRD mice; assay type: in vivo; settings: compared to NaCl-treated MuSKΔCRD mice
Protocol: Animals were allowed to grasp a metal rail suspended in midair and their latency to release the rail was recorded. Each mouse (N=6 for each genotype) was subjected to five trials with at least 10 min rest period between tests.
The grip strength was measured using a grip force tensiometer (Bioseb) according to the TREAT-NMD guidelines. Forelimbs and hindlimbs traction strength were recorded according to the manufacter's instructions. Three measurements were performed per animal.
(§4) E12 pregnant mice or P10 adult mice were intraperitoneally injected with LiCl (Sigma, 600 mM-10 μl/g body weight) or placebo NaCl solution (0,0009%-10 μl/g body weight). Daily injections were made from E12 to E18 or from P10 to P60. After embryos genotyping, E18.5 or P60 diaphragms of LiCl-treated MuSKΔCRD mice were analyzed and compared to WT or NaCl-treated MuSKΔCRD.

MuSKΔCRD embryos = test: NMJ formation in E18.5 MuSKΔCRD embryos after intraperitoneal injections in pregnant mice (whole mount diaphragm); assay type: in vivo
Protocol: Diaphragm muscles were dissected and fixed (4% paraformaldehyde in PBS) for 1 h at room temperature and further fixed (1% formaldehyde in PBS) overnight at 4° C. Muscles were washed three times for 15 minutes in PBS, incubated for 15 minutes with 100 mM glycine in PBS and rinsed in PBS. Muscles were permeabilized (0.5% Triton X-100 in PBS) for 1 h and blocked for 4 hours in blocking buffer (3% BSA, 5% goat serum and 0.5% Triton X-100 in PBS). Muscles were incubated overnight at 4° C. with rabbit polyclonal antibodies against neurofilament and synaptophysin in blocking solution. After three 1-hour washes in PBS, muscles were incubated overnight at 4° C. with Alexa-488 goat anti-rabbit IgG and Alexa-594-conjugated-α-bungarotoxin (α-BGT) in blocking solution. After three 1-hour washes in PBS, muscles were flat-mounted in Vectashield (Vector Labs) mounting medium.
as §3, §4

[5] = test system: Wnt/β-catenin signaling in MuSKΔCRD mice; test: β-catenin translocation to subsynaptic nuclei in isolated TA muscle fibers of treated MuSKΔCRD mice; assay type: in vivo; settings: P40 TA muscle fibers, compared to NaCl-treated MuSKΔCRD
Protocol: as §2
All images were collected on a microscope (model BX61; Olympus) equipped with a Fast 1394 Digital CCD FireWire camera (model Retiga 2000R; Qimaging) and a 20× objective or on a confocal laser scanning microscope (Zeiss LSM-710) equipped with a 20× objective and 63× oil objective. Collected Z-stacks confocal images (5 to 20 stacks with 1 to 1.5 μm (20×) z-steps) and image capture were made using LSM Image Browser. The same laser power and parameter setting were applied to ensure fair comparison between WT and MuSKΔCRD muscles. Multiple Tile Scanned images were taken to cover the size of the whole diaphragm. […] For quantification of the AChR clusters number, volume and intensity, image stacks were quantified using the ImageJ (version 1.46m) plugin “3D object counter” (Bolte and Cordeliéres, 2006). […] At least 4 diaphragms or 50 isolated muscle fibers of each genotype were analyzed and quantified. To evaluate β-catenin translocation to subsynaptic nuclei in isolated muscle fibers, image stacks corresponding to nuclei were used for quantification using the ImageJ intensity plot profile measuring the intensity of β-catenin and Dapi fluorescence within the segmented line. […]

WT primary myotubes = test: AChR clustering in WT primary myotubes; assay type: cell-based, mice; settings: Wnt11 10 ng/ml, 16 h
Protocol: as §1, with “When indicated, myotubes were treated with recombinant Agrin (0.4 μg/ml, R&D system), Wnt11 (10 ng/ml, R&D system) or LiCl (2.5 mM, Sigma) for 16 h.” left out
All images were collected on a microscope (model BX61; Olympus) equipped with a Fast 1394 Digital CCD FireWire camera (model Retiga 2000R; Qimaging) and a 20× objective or on a confocal laser scanning microscope (Zeiss LSM-710) equipped with a 20× objective and 63× oil objective. […] For quantification of the AChR clusters number, volume and intensity, image stacks were quantified using the ImageJ (version 1.46m) plugin “3D object counter” (Bolte and Cordeliéres, 2006). […] At least 4 diaphragms or 50 isolated muscle fibers of each genotype were analyzed and quantified. […]

[6] = P40 TA, compared to NaCl-treated mice
[7] = E18.5, i.p. E12 to E18.5, vs NaCl-treated MuSKΔCRD

[Cl-].[Li+] [LiCl, lithium chloride]
β-catenin translocation to the nucleus ([1]; LiCl-treated compared to Wnt11-treated MuSKΔCRD myotubes): increased β-catenin translocation to the nucleus
increase in the number of AChR clusters ([2]; LiCl 2.5 mM, MuSKΔCRD primary myotubes): 6 fold
size of NMJ structures (MuSKΔCRD mice [3]; P40 TA isolated muscle fibers, compared to NaCl-treated MuSKΔCRD): increased in size
decrease of number of AChRs fragments per NMJ (MuSKΔCRD mice [3]; [6]): 44%
increase of AChR cluster area (MuSKΔCRD mice [3]; [6]): 40%
increase of synaptophysin area (MuSKΔCRD mice [3]; [6]): 105%
fore limb strength (MuSKΔCRD mice [4]): significantly improved
hind limb strength (MuSKΔCRD mice [4]): significantly improved
latencies to fall from the rail grip (MuSKΔCRD mice [4]): significantly improved
reduction of number of bypassing neurites (MuSKΔCRD embryos; E18.5, compared to NaCl-treated embryos): 33%
reduction of length of primary nerve branches (MuSKΔCRD embryos; E18.5, i.p. E12 to E18.5): 35%
reduction of length of secondary nerve branches (MuSKΔCRD embryos; E18.5, i.p. E12 to E18.5): 28%
endplate band width reduction (MuSKΔCRD embryos; E18.5, i.p. E12 to E18.5, compared to NaCl-treated mutant embryos): 23%
gain in AChR clusters intensity (MuSKΔCRD embryos; [7]): 20%
gain in AChR clusters number (MuSKΔCRD embryos; [7]): 103%
gain in AChR clusters volume (MuSKΔCRD embryos; [7]): 186%
rescue of pre- and postsynaptic defects (MuSKΔCRD embryos; E18.5 MuSKΔCRD embryos): almost fully rescued both pre- and postsynaptic defects
β-catenin translocation to subsynaptic nuclei [5]: strong increase

agrin: recombinant Agrin (R&D system), nerve-secreted protein that binds LRP4 and activates MuSK
number of AChR clusters following agrin treatment ([2]; MuSKΔCRD compared to WT primary myotubes, agrin 0.4 μg/ml): No difference

B1: Wnt11: member of the Wnt family known to interact with MuSK CRD; recombinant, R&D system (protein, UniProt O96014 25-354, looked up)
Protein Wnt-11: IKWLALSKTPSALALNQTQHCKQLEGLVSAQVQLCRSNLELMHTVVHAAREVMKACRRAFADMRWNCSSIELAPNYLLDLERGTRESAFVYALSAAAISHAIARACTSGDLPGCSCGPVPGEPPGPGNRWGGCADNLSYGLLMGAKFSDAPMKVKKTGSQANKLMRLHNSEVGRQALRASLEMKCKCHGVSGSCSIRTCWKGLQELQDVAADLKTRYLSATKVVHRPMGTRKHLVPKDLDIRPVKDSELVYLQSSPDFCMKNEKVGSHGTQDRQCNKTSNGSDSCDLMCCGRGYNPYTDRVVERCHCKYHWCCYVTCRRCERTVERYVCK
β-catenin translocation to the nucleus ([1]; Wnt11-treated MuSKΔCRD compared to Wnt11-treated WT primary myotubes): strongly reduced
decrease of Wnt11-induced number of AChR clusters ([2]; Wnt11-treated MuSKΔCRD primary myotubes, compared to Wnt11-treated WT, 10 ng/ml): 80%
increase in the number of AChR clusters (WT primary myotubes): 4.5 fold
